From patent US20260103471A1, “CYCLIC UREA THIAZOLYL COMPOUNDS FOR TREATMENT OF HSV” (Assembly Biosciences, Inc., priority 2022, published 2026)

System: HSV-2 G strain
Assay: HSV-2 Antiviral Assay (Vero cells, cell viability)
Format: cell-based
Settings: Human alphaherpesvirus 2, Vero, 120 h, Vero cells, 160 TCID50 HSV-2 G strain, 5 days, cell viability
Method in brief: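 Antiviral readout is survival of infected Vero cells: after 5 days at 37 °C with 160 TCID50 HSV-2 G strain plus serially diluted compound (8 points, 3-fold, 0.5% DMSO), WST-8 was added for 3 h and absorbance measured at 460/620 nm. Cells seeded at 1.0×10^4 per well.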

Row | EC50 | Compound
1 | < 100 nM | COCCCCNS(=O)(=O)c1sc(N2CCCN(c3ccc(-c4cc(F)ccc4F)cc3)C2=O)nc1C [Compound 390]
2 | 100 to 1000 nM | Cc1nc(N2CCCN(c3ccc(-c4cc(F)ccc4F)cc3)C2=O)sc1S(=O)(=O)Nc1ccc2cc[nH]c2c1 [Compound 407]
3 | 100 to 1000 nM | COc1c(F)cc(F)cc1-c1ccc(N2CC(C(C)(C)O)CN(c3nc(C)c(S(N)(=O)=O)s3)C2=O)cc1 (stereo not drawn) [Compound 345]
4 | 100 to 1000 nM | Cc1nc(N2CCCN(c3ccc(-c4ccc(C#N)c5c4ccn5C)cc3)C2=O)sc1S(N)(=O)=O [Compound 300]
5 | < 100 nM | COc1cc(-c2ccc(N3CCCN(c4nc(C)c(S(N)(=O)=O)s4)C3=O)cc2)c2nsnc2c1 [Compound 303]
6 | < 100 nM | Cc1nc(N2CCCN(c3ccc(-c4cccc5sccc45)cc3)C2=O)sc1S(N)(=O)=O [Compound 285]
7 | 100 to 1000 nM | Cc1nc(N2CCCN(c3ccc(-c4cc(F)ccc4F)cc3)C2=O)sc1S(=O)(=O)NN [Compound 405]
8 | 1000 to 5000 nM | Cc1nc(N2CCCN(c3ccc(-c4ccccc4C4(C#N)CC4)cc3)C2=O)sc1S(N)(=O)=O [Compound 23]
9 | 100 to 1000 nM | Cc1nc(N2CCCN(c3ccc(-c4cc(F)cc5c(C)c(C(C)(C)O)sc45)cc3)C2=O)sc1S(N)(=O)=O [Compound 282]
10 | < 100 nM | Cc1nc(N2CC(C)CN(c3ccc(-c4ccccc4)cc3)C2=O)sc1S(N)(=O)=O (stereo not drawn) [Compound 326]
11 | 100 to 1000 nM | Cc1nc(N2CCCN(c3ccc(-c4snc5c(F)cc(F)c(F)c45)cc3)C2=O)sc1S(N)(=O)=O [Compound 308]
12 | 1000 to 5000 nM | Cc1nc(N2CCCN(c3ccc(-c4cc(Cl)c(F)cn4)cc3)C2=O)sc1S(N)(=O)=O [Compound 38]
13 | < 100 nM | Cc1nc(N2C[C@@H](F)CN(c3ccc(-c4cc(F)ccc4F)cc3)C2=O)sc1S(=O)(=O)NCCO (single isomer, unassigned) [Compound 415]
14 | 1000 to 5000 nM | CN=[S@@](C)(=O)c1sc(N2CCCN(c3ccc(-c4cc(F)ccc4F)cc3)C2=O)nc1C (single isomer, unassigned) [Compound 152]
15 | < 100 nM | Cc1nc(N2CC(CO)CN(c3ccc(-c4cc(F)ccc4F)cc3)C2=O)sc1S(N)(=O)=O (stereo not drawn) [Compound 356]
16 | < 100 nM | Cc1nc(N2CCCN(c3ccc(-c4cc(F)cc5c4c(C)cn5C)cc3)C2=O)sc1S(N)(=O)=O [Compound 291]
17 | < 100 nM | CCCS(=N)(=O)c1sc(N2CCCN(c3ccc(-c4cc(F)cc(F)c4F)cc3)C2=O)nc1C (stereo not drawn) [Compound 423]
18 | < 100 nM | Cc1nc(N2CCCN(c3ccc(-c4cc(F)ccc4C(C)(F)F)cc3)C2=O)sc1S(N)(=O)=O [Compound 225]
19 | < 100 nM | Cc1nc(N2CCCN(c3ccc(-c4nccc5ccsc45)cc3)C2=O)sc1S(N)(=O)=O [Compound 270]
20 | < 100 nM | Cc1nc(N2CCN(c3ccc(-c4cc(F)cc5nsnc45)cc3)C2=O)sc1S(N)(=O)=O [Compound 314]
21 | 100 to 1000 nM | Cc1nc(N2CCCN(c3ccc(-c4cccc5c4C(F)(F)CCO5)cc3)C2=O)sc1S(N)(=O)=O [Compound 266]
22 | 1000 to 5000 nM | COC1CN(c2ccc(-c3cc(F)ccc3F)cc2)C(=O)N(c2nc(C)c(S(N)(=O)=O)s2)C1 (stereo not drawn) [Compound 357, 2-(3-(2′,5′-difluoro-[1,1′-biphenyl]-4-yl)-5-methoxy-2-oxotetrahydropyrimidin-1(2H)-yl)-4-methylthiazole-5-sulfonamide]
23 | < 100 nM | Cc1nc(N2CCCCN(c3ccc(-c4cccc5ncsc45)cc3)C2=O)sc1[S@@](C)(=N)=O (single isomer, unassigned) [Compound 429]
24 | 100 to 1000 nM | Cc1nc(N2CCCN(c3ccc(-c4cc(F)ccc4-c4cncs4)cc3)C2=O)sc1S(N)(=O)=O [Compound 231]

Row | EC50 | Compound
25 | < 100 nM | COCCCCCCCCCCNS(=O)(=O)c1sc(N2CCCN(c3ccc(-c4cc(F)ccc4F)cc3)C2=O)nc1C [Compound 421]
26 | 100 to 1000 nM | Cc1nc(N2CCCN(c3ccc(-c4cc(F)cc5c(C)c(C(C)(C)F)sc45)cc3)C2=O)sc1S(N)(=O)=O [Compound 283]
27 | < 100 nM | Cc1nc(N2CCCN(c3ccc(-c4cc(F)ccc4F)cc3)C2=O)sc1S(=O)(=O)NCC1COC1 [Compound 404]
28 | < 100 nM | Cc1nc(N2CCCCN(c3ccc(-c4cc(F)ccc4F)cc3)C2=O)sc1[S@](C)(=N)=O (single isomer, unassigned) [Compound 427]
29 | < 100 nM | Cc1nc(N2CCCN(c3ccc(-c4cc(F)ccc4F)cc3)C2=O)sc1S(=O)(=O)NC[C@@H](C)CO [Compound 395]
30 | < 100 nM | C#Cc1nc(N2CCCN(c3ccc(-c4cc(F)ccc4F)cc3)C2=O)sc1S(N)(=O)=O [Compound 439]
31 | 100 to 1000 nM | Cc1nc(N2CCCN(c3ccc(-c4cccn5nncc45)cc3)C2=O)sc1S(N)(=O)=O [Compound 263]
32 | < 100 nM | COc1c(F)cc(F)cc1-c1ccc(N2CC(C(F)(F)F)CN(c3nc(C)c(S(N)(=O)=O)s3)C2=O)cc1 (stereo not drawn) [Compound 372]
33 | < 100 nM | Cc1nc(N2CC(C)CN(c3ccc(-c4ccccc4F)cc3)C2=O)sc1S(N)(=O)=O (stereo not drawn) [Compound 315]
34 | < 100 nM | Cc1nc(N2CCCN(c3ccc(-c4cc(F)ccc4F)cc3)C2=O)sc1S(=O)(=O)NC[C@H](C)CO [Compound 396]
35 | < 100 nM | Cc1nc(N2CCCN(c3ccc(-c4cc(F)ccc4F)cc3)C2=O)sc1S(=O)(=O)NCCCCCCCCCCO [Compound 420]
36 | < 100 nM | COc1c(F)cc(F)cc1-c1ccc(N2CCCN(c3nc(C)c(S(=O)(=O)NCCCCCCCCCCO)s3)C2=O)cc1 [Compound 422]
37 | < 100 nM | Cc1nc2c(-c3ccc(N4CCCN(c5nc(C)c(S(N)(=O)=O)s5)C4=O)cc3)cccc2s1 [Compound 72]
38 | < 100 nM | Cc1nc(N2CC3(COC3)CN(c3ccc(-c4cc(F)cc5nonc45)cc3)C2=O)sc1S(N)(=O)=O [Compound 341]
39 | < 100 nM | Cc1nc(N2CCCN(c3ccc(-c4cccc(-c5cncs5)c4)cc3)C2=O)sc1S(N)(=O)=O [Compound 31]
40 | < 100 nM | NS(=O)(=O)c1sc(N2CCCN(c3ccc(-c4cc(F)ccc4F)cc3)C2=O)nc1CO [Compound 440, 2-(3-(2′,5′-difluoro-[1,1′-biphenyl]-4-yl)-2-oxotetrahydropyrimidin-1(2H)-yl)-4-(hydroxymethyl)thiazole-5-sulfonamide]
41 | 1000 to 5000 nM | Cc1nc(N2CCCN(c3ccc(-c4cc(C(F)(F)F)cc5nn(C)cc45)cc3)C2=O)sc1S(N)(=O)=O [Compound 289]
42 | < 100 nM | Cc1nc(N2CC3(COC3)CN(c3ccc(-c4cc(F)ccc4F)cc3)C2=O)sc1S(C)(=N)=O (stereo not drawn) [Compound 431]
43 | < 100 nM | CCC[S@@](=N)(=O)c1sc(N2CCCN(c3ccc(-c4cc(F)cc(F)c4F)cc3)C2=O)nc1C (single isomer, unassigned) [Compound 424]
44 | < 100 nM | COCc1c(F)cc(F)cc1-c1ccc(N2CCCN(c3nc(C)c(S(N)(=O)=O)s3)C2=O)cc1 [Compound 221]
45 | < 100 nM | COCCCNS(=O)(=O)c1sc(N2CCCN(c3ccc(-c4cc(F)cc5nsnc45)cc3)C2=O)nc1C [Compound 419]
46 | < 100 nM | Cc1nc(N2CCCN(c3ccc(-c4cc(C(F)F)ccc4F)cc3)C2=O)sc1S(N)(=O)=O [Compound 206]
47 | 1000 to 5000 nM | Cc1nc(N2CCCN(c3ccc(-c4cc(C(C)(F)F)cs4)cc3)C2=O)sc1S(N)(=O)=O [Compound 241]
48 | < 100 nM | Cc1nc(N2CCCN(c3ccc(-c4cccc5cc(N)ncc45)cc3)C2=O)sc1S(N)(=O)=O [Compound 268]
